Data published in patent US20240262812A1, “N-SUBSTITUTED PHENYLSULFONAMIDE COMPOUND AND USE THEREOF” (Shanghai Leado Pharmatech Co., Ltd., priority 2021, published 2024).
pIC50: −log10 of the molar value.

Key:
mTRPA1 = biological target: T1, mTRPA1 (Mus musculus, UniProt Q8BLA8); experiment: IonWorks Barracuda (IWB) automated patch clamp, TRPA1 inhibitory activity; type: cell-based; conditions: HEK293 cells stably expressing mTRPA1, current induced by AITC, amplitude at +100 mV; read-out: IC50 (inhibition activity on TRPA1)
T1 construct: expressed in transfected cells
Procedure: In this example, the inhibitory activity of the compounds prepared in some examples of the present invention on transient receptor potential channel protein ankyrin 1 (TRPA1) was tested. Among them, compound of formula A (WO2010075353) was used as the positive control compound: […]
Test method using IonWorks Barracuda (IWB) automated patch clamp detection: HEK293 cells stably expressing mTRPA1 were placed in the T175 culture flask with DMEM medium containing 15 µg/mL Blasticidin S HCl, 200 µg/mL Hygromycin B and 10% FBS, and cultured in 37° C., 5% CO2 incubator. When the cell density reached about 80%, the culture medium was removed, washed once with phosphate buffered saline (PBS) without calcium and magnesium. 3 mL of Trypsin was added to digest for 2 min, 7 mL of culture solution was added to terminate the digestion. The cells were collected to 15 mL centrifuge tube and centrifuged at 800 rpm for 3 min. After the supernatant was removed, the cells were added to appropriate volume of extracellular fluid for re-suspending, and the cell density was controlled at 2-3×10^6/mL for use in IWB experiment. Extracellular fluid formulation (in mM): 140 NaCl, 5 KCl, 1 MgCl2, 10 HEPES, 0.5 EGTA, 10 Glucose (pH 7.4); intracellular fluid formulation (in mM): 140 CsCl, 10 HEPES, 5 EGTA, 0.1 CaCl2, 1 MgCl2 (pH 7.2). 28 mg/mL of amphotericin B was freshly prepared with DMSO on the day of experiment, and then final concentration of 0.1 mg/mL was prepared with intracellular fluid.
Population patch clamp (PPC) plate was used in IWB experiment. The entire detection process was automatically carried out by the instrument, that is, extracellular fluid was added into 384 wells of PPC plate, and after intracellular fluid was added under PPC plate (in plenum), 6 µL of cell fluid was added for sealing test, and finally the intracellular fluid in plenum was replaced with intracellular fluid containing amphotericin B to establish a whole-cell recording mode after perforating sealed cells. The sampling frequency for recording TPRA1 current was 10 kHz, the cells were clamped at 0 mV, the voltage stimulation command (channel protocol) was a ramp voltage from −100 mV to +100 mV for 300 ms. This voltage stimulation was applied every 10 s, mTRPA1 current was induced by 300 µM AITC.
Data recording and current amplitude measurement export were carried out by IWB software (version 2.5.3, Molecular Devices Corporation, Union City, CA). No statistics was recorded for holes with sealing impedance lower than 20 MΩ. The original current data was corrected by software for leak subtraction. TRPA1 current amplitude was measured at +100 mV. […] If IC50 value of HC030031 exceeded 3 times of the average IC50 value previously obtained on each plate, it would be re-tested. The dose-effect curve of compounds and IC50 were fitted and calculated by GraphPad Prism 5.02 (GraphPad Software, San Diego, CA).
Some compounds of the present invention were subjected to IC50 inhibition activity test using the IonWorks Barracuda (IWB) automated patch clamp detection method.

chemokine receptor CCR9 = biological target: T2, chemokine receptor CCR9 (Homo sapiens, UniProt P51686); experiment: CCR9 antagonistic activity, calcium flow (Fluo-4, FlexStation), CCL25 agonist; type: cell-based; conditions: antagonistic mode, CCL25 150 nM; for inhibition at 100 µM: read-out: Inhibition rate (%) (100 μM)
T2 construct: expressed in transfected cells
T2 sequence (P51686 1-369): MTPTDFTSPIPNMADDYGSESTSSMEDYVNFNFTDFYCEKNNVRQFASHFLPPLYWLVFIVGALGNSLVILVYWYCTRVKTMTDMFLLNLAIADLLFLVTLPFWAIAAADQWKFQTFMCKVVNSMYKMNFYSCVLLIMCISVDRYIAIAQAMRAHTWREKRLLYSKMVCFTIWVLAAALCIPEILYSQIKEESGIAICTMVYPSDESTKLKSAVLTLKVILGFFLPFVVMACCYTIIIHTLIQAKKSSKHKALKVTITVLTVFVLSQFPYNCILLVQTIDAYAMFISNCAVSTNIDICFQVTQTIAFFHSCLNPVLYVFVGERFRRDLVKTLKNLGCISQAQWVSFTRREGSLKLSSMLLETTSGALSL
From the text: 2.1 Main reagents: DMEM culture medium (GIBCO); dimethyl sulfoxide (Sigma); FLUO-4, AM (Invitrogen) 2.2 Main instrument: Flexstation-3 (Molecular Devices) The test concentration gradient of the compound and replicates were set according to the requirement of testing ICSO. All test substances with 8 concentrations were set, with 3 replicates for each concentration. By establishing a cell line that cotransformed the receptor and G16, the receptor being activated can induce the activation of Gα16 protein, thereby activating phospholipase C (PLC) to produce IP3 and DAG. IP3 can bind to the IP3 receptor on the intracellular endoplasmic reticulum and mitochondria, leading to the release of intracellular calcium. Therefore, measuring changes in intracellular calcium can serve as a method for detecting the activation status of target receptor. Fluo-4/AM is a calcium fluorescent probe indicator used to measure calcium ion, as a non-polar lipophilic compound, under the action of cell lipase after entering cells, the AM group dissociates and releases Fluo-4; since Fluo-4 is a polar molecule, it is not easy to pass through lipid bilayers, allowing it to remain in the cell for a long time. Ultimately, the level of G protein activation can be reflected by measuring the excited fluorescence intensity. […] Cells stably expressing the target receptor/Ga16 were planted on a 96 well plate and cultured overnight. 2. The culture solution was removed from the well planted cells, then 40 μL/well of freshly prepared dye was added. The mixture was incubated at a constant temperature in a 37° C. incubator for 40 minutes. 3. The drug to be tested was diluted with calcium buffer and mixed well. 4. The dye was absorbed and discarded. After washed once with freshly prepared calcium buffer, 50 μL of calcium buffer that dissolved the drug to be tested was added for replacement. 5. The FlexStation II instrument was used for detection. Starting from the 15th second, […] dissolved with known agonist was automatically added by the instrument, and finally the fluorescence value at 525 nm was readed. The following formula was used to calculate the cell response rate (% Response) for each sample under each concentration. […] IC50 value was calculated using GraphPad Prism.

T1 sequence (Q8BLA8 whole entry): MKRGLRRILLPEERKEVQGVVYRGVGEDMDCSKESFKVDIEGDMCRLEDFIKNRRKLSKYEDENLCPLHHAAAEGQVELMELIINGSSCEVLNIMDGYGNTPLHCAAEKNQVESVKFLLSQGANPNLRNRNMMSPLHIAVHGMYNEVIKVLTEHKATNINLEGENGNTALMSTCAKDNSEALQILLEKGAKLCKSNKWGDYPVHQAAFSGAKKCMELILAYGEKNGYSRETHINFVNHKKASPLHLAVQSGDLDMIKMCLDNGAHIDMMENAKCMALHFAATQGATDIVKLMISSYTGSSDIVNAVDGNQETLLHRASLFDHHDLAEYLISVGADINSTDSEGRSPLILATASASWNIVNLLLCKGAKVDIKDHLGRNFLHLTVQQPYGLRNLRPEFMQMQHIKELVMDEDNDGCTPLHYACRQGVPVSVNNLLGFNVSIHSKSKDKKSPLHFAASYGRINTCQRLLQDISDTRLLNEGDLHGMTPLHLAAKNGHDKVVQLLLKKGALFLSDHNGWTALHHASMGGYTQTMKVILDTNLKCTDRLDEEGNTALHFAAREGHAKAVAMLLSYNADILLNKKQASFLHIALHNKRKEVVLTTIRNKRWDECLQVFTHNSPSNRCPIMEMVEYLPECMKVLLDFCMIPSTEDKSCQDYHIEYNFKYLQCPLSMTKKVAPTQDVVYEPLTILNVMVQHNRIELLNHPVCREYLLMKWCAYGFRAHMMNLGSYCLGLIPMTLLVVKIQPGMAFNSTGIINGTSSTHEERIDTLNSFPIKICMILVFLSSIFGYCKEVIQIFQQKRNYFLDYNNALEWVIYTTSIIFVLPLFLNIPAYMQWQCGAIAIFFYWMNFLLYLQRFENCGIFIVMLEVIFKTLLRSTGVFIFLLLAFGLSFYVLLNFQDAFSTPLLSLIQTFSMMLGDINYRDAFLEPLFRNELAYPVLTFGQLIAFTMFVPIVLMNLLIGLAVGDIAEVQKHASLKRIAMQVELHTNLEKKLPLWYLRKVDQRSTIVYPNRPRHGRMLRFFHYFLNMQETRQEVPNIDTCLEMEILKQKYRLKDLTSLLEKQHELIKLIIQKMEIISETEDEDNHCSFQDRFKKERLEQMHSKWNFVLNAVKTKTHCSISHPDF

Work on CNCc1ccc(-c2ccco2)c(NS(=O)(=O)c2ccccc2OC)c1 [IA-5, 2-Methoxy-N-(2-(furan-2-yl)-5-((methylamino)methyl)phenyl)benzenesulfonamide] yielded a pIC50 (mTRPA1) of 5.30 to 6.00, an inhibition at 100 µM (chemokine receptor CCR9) of 0% and a pIC50 (chemokine receptor CCR9) of under 4.00.
Work on CNCc1ccc(-c2ccco2)c(NS(=O)(=O)c2ccc(F)cc2F)c1 [IA-11, 2,4-Difluoro-N-(2-(furan-2-yl)-5-((methylamino)methyl)phenyl)benzenesulfonamide] yielded a pIC50 (mTRPA1) of 5.30 to 6.00, an inhibition at 100 µM (chemokine receptor CCR9) of 5% and a pIC50 (chemokine receptor CCR9) of under 4.00.
With CNCc1ccc(-c2ccco2)c(NS(=O)(=O)c2ccc3c(c2)CCO3)c1 [IA-15, N-(2-(furan-2-yl)-5-((methylamino)methyl)phenyl)-2,3-dihydrobenzofuran-5-sulfonamide] the pIC50 (mTRPA1) was 5.30 to 6.00, the inhibition at 100 µM (chemokine receptor CCR9) was 0% and the pIC50 (chemokine receptor CCR9) was under 4.00.
For CNCc1ccc(-c2ccco2)c(NS(=O)(=O)c2ccsc2)c1 [IA-21, N-(2-(furan-2-yl)-5-((methylamino)methyl)phenyl)thiophene-3-sulfonamide], the pIC50 (mTRPA1) was 5.30 to 6.00, the inhibition at 100 µM (chemokine receptor CCR9) was 25% and the pIC50 (chemokine receptor CCR9) was under 4.00.
In the case of O=S(=O)(Nc1ccc(CNC2CC2)cc1-c1ccco1)c1ccsc1 [IA-33, N-(4-((cyclopropylamino)methyl)-2-(furan-2-yl)phenyl)thiophene-3-sulfonamide], the pIC50 (mTRPA1) was 5.30 to 6.00, the inhibition at 100 µM (chemokine receptor CCR9) was 10% and the pIC50 (chemokine receptor CCR9) was under 4.00.
CNCc1ccc(-c2ccc(C)o2)c(NS(=O)(=O)c2ccccc2)c1 [IA-35, N-(5-((methylamino)methyl)-2-(5-methylfuran-2-yl)phenyl)benzenesulfonamide] gave a pIC50 (mTRPA1) of 5.30 to 6.00, an inhibition at 100 µM (chemokine receptor CCR9) of 35% and a pIC50 (chemokine receptor CCR9) of under 4.00.
CNCc1ccc(-c2ccoc2)c(NS(=O)(=O)c2ccsc2)c1 [IA-43, N-(2-(furan-3-yl)-5-((methylamino)methyl)phenyl)thiophene-3-sulfonamide] gave a pIC50 (mTRPA1) of 5.30 to 6.00, an inhibition at 100 µM (chemokine receptor CCR9) of 22% and a pIC50 (chemokine receptor CCR9) of under 4.00.
CNCc1ccc(-c2ccoc2)c(NS(=O)(=O)c2cccs2)c1 [IA-44, N-(2-(furan-3-yl)-5-((methylamino)methyl)phenyl)thiophene-2-sulfonamide] showed a pIC50 (mTRPA1) of 5.30 to 6.00, an inhibition at 100 µM (chemokine receptor CCR9) of 12% and a pIC50 (chemokine receptor CCR9) of under 4.00.
Work on CNCc1ccc(-c2cccs2)c(NS(=O)(=O)c2ccc(F)cc2)c1 [IA-45, 4-Fluoro-N-(5-((methylamino)methyl)-2-(thiophene-2-yl)phenyl)benzenesulfonamide] yielded a pIC50 (mTRPA1) of 5.30 to 6.00, an inhibition at 100 µM (chemokine receptor CCR9) of 30% and a pIC50 (chemokine receptor CCR9) of under 4.00.
CNCc1ccc(-c2ccsc2)c(NS(=O)(=O)c2ccccc2)c1 [IA-49, N-(2-(thiophene-3-yl)-5-((methylamino)methyl)phenyl)benzenesulfonamide] was tested, and the pIC50 (mTRPA1) was 5.30 to 6.00, the inhibition at 100 µM (chemokine receptor CCR9) was 19% and the pIC50 (chemokine receptor CCR9) was under 4.00.
In the case of CNCc1ccc(N(C)S(=O)(=O)c2ccsc2)c(-c2ccco2)c1 [IB, N-(2-(furan-2-yl)-4-((methylamino)methyl)phenyl)-N-methylthiophene-3-sulfonamide], the pIC50 (mTRPA1) was over 6.00, the inhibition at 100 µM (chemokine receptor CCR9) was 10% and the pIC50 (chemokine receptor CCR9) was under 4.00.
For NCc1ccc(-c2ccco2)c(NS(=O)(=O)c2ccccc2)c1 [ID-1, N-(5-(aminomethyl)-2-(furan-2-yl)phenyl)benzenesulfonamide], the pIC50 (mTRPA1) was over 6.00, the inhibition at 100 µM (chemokine receptor CCR9) was 15% and the pIC50 (chemokine receptor CCR9) was under 4.00.
NCc1ccc(-c2ccco2)c(NS(=O)(=O)c2ccsc2)c1 [ID-3, N-(5-(aminomethyl)-2-(furan-2-yl)phenyl)thiophene-3-sulfonamide] showed a pIC50 (mTRPA1) of over 6.00, an inhibition at 100 µM (chemokine receptor CCR9) of 13% and a pIC50 (chemokine receptor CCR9) of under 4.00.
Molecule NCc1ccc(NS(=O)(=O)c2ccsc2)c(-c2cc[nH]n2)c1 [ID-7, N-(4-(aminomethyl)-2-(1H-pyrazole-3-yl)phenyl)thiophene-3-sulfonamide] has a pIC50 (mTRPA1) of 5.30 to 6.00, an inhibition at 100 µM (chemokine receptor CCR9) of 11% and a pIC50 (chemokine receptor CCR9) of under 4.00.
Work on CN(c1ccc(CN)cc1-c1ccco1)S(=O)(=O)c1ccsc1 [IF, N-(4-(aminomethyl)-2-(furan-2-yl)phenyl)-N-methylthiophene-3-sulfonamide] yielded a pIC50 (mTRPA1) of over 6.00, an inhibition at 100 µM (chemokine receptor CCR9) of 22% and a pIC50 (chemokine receptor CCR9) of under 4.00.
